# Reference: patent US10059742B2, “Peptides and methods and uses thereof for preventing retinal disorders” (priority 2012, dated 2018)
# Ends that are not written are not given here.
# Legend:
# [1] = system: cultured post-natal cortical neurons; assay: Cortical neuron survival after glutamate (crystal violet assay); assay type: cell-based, rat; conditions: 5 mM glutamate, 24 hours; increasing volumes of 10 mg/ml peptide stock; relative to control
# Experimental: Cortical neuron cultures were made from newborn (P5) rat pups. Cortical samples were triturated 30× using a P1000 pipettor in cold Dubelcco's PBS+glucose. Neurons were plated in 24 well plates coated with poly-d-lysine. 100,000 cells/well were plated in cold Neurobasal A medium+glutamax+penicillin/streptomycin. Cultures were placed in an incubator (37 Celsius, 5% CO2) for 7 days, with half the media changed after 3 days.
# After 7 days in culture, the media was replaced with fresh media containing 5 mM glutamate. Experimental samples received various amounts of each peptide, whereas controls received an equivalent volume of PBS (vehicle). After 24 hours, cell survival was quantified using the crystal violet assay: Media was removed from the cells and 200 microliters of 0.2% crystal violet (dissolved in 20% methanol:80% H2O) was added to each well. After 5 minutes, wells were rinsed with distilled water and the plates were dried. Crystal violet was eluted from the cells using 0.1 M sodium citrate in 50% ethanol. 100 microliter samples from each well were then transferred to 96 well plates and absorbance was read at 540 nm. Results were expressed as the relative fold-change in comparison to the control samples that received buffer.
# [2] = system: axotomized retinal ganglion cells (RGCs); assay: Optic nerve transection (axotomy): RGC survival at 14 days; assay type: in vivo, rat; conditions: 14 days postaxotomy, TAT-conjugated peptide
# Experimental: Optic nerve transection was performed as previously described (Koeberle and Ball 1998; Koeberle and Bahr 2008; Koeberle, Wang et al. 2010; Magharious, D'Onofrio et al. 2011; Magharious, D'Onofrio et al. 2011; Monnier, D'Onofrio et al. 2011). Animals were placed in a stereotaxic frame and anesthetized with Isoflurane (2%; 0.8 L/min oxygen flow rate) delivered through a gas anesthesia mask. Lidocaine eye drops were used to anesthetize the cornea and ophthalmic eye ointment was applied to the cornea to prevent desiccation during surgery. […] In order to allow access to the optic nerve and surrounding dura mater sheath, the eye was rotated laterally by applying traction to the extraocular muscles. The dural sheath surrounding the optic nerve was cut longitudinally, to avoid damaging blood vessels supplying the retina. The optic nerve was gently lifted from the meningeal sheath and transected within 2 mm of the back of the eye. In order to retrogradely label RGCs, gelfoam soaked in 2% Fluorogold (Sigma) was placed over the transected optic nerve stump. The orbital contents were returned to their original location and the initial incision was closed. The optic nerve crush procedure was performed using a similar approach; however, the optic nerve was crushed using fine self-closing forceps for 6 seconds as previously described (Magharious, D'Onofrio et al. 2011; Monnier, D'Onofrio et al. 2011). The orbital contents were then similarly returned to their original location and the initial incision was closed. Following surgery, rats were placed in a recovery cage under a heat lamp and given Ketoprofen to ease post-surgical recovery.
# The procedures for intraocular and optic nerve injections have been previously described (Koeberle and Ball 1998; Koeberle and Bahr 2008; Koeberle, Wang et al. 2010; Magharious, D'Onofrio et al. 2011; Magharious, D'Onofrio et al. 2011; Monnier, D'Onofrio et al. 2011). Animals received intraocular injections of each peptide at 3 and 8 days postaxotomy, prior to the onset of RGC apoptosis which occurs at 4-5 days after axotomy. Animals were placed in a stereotaxic frame and anesthetized with isoflurane, delivered through a gas anesthetic mask. The cornea was anesthetized using Alcaine eye drops (Alcon) prior to intraocular injections. A pulled glass micropipette attached to a 10 μl Hamilton syringe via a hydraulic coupling through PEEK tubing was used to deliver 4 μl of a peptide solution (10 mg/ml) into the vitreous chamber of the eye, posterior to the limbus. Care was taken to prevent damage to the lens or anterior structures of the eye. The pipette was held in place for 5 seconds after injection and slowly withdrawn from the eye to prevent reflux. Injections were performed using a surgical microscope in order to visualize pipette entry into the vitreous chamber and confirm delivery of the injected solution.
# To directly target RGCs, peptide solutions were injected into the transected optic nerve stump using a 10 microliter Hamilton syringe. A total of 5 microliters of peptide suspension (10 mg/ml) were injected. The majority of the injected fluid will reflux out of the optic nerve during this procedure, so the remaining pool of peptide suspension is left in place when returning the orbital contents to their original positions.
# For intraperitoneal injections, 1 ml of saline containing 0.5 mg of dissolved peptide was delivered via a 25 gauge needle attached to a 5 ml syringe, following rapid anesthesia with isoflurane to incapacitate the animal.
# For eye drop application of C-terminal peptides, animals were sedated with isoflurane and placed in a stereotaxic frame, in order to reduce the blink reflex. Twenty-five microliters of a peptide suspension (1 mg/ml) was delivered to the surface of the cornea using a micropipetter with a sterile micropipette tip. Eye drops were delivered once per day, on day 1, 2, 3, 4, 5, 6, and day 7 after axotomy. […]
# [3] = system: retinal ganglion cells (RGCs); assay: Retinal ischemia (ophthalmic artery ligation): RGC survival at 14 days; assay type: in vivo, rat; conditions: ophthalmic vessels ligated 45 minutes; intravenous 500 μg at 1 day and 8 days after injury; 14 days after stroke
# Experimental: The approach for temporary retinal ischemia (ophthalmic artery ligation) was similar with a few exceptions. this procedure has been previously described (Tatton, Chalmers-Redman et al. 2001). Since the optic nerve was not damaged in this procedure, RGCs had to be retrogradely labeled prior to ischemia. […] Injections were performed under gas anesthetic in a stereotaxic apparatus. […] Injections were carried out using a 10 μl Hamilton syringe actuated by a computer controlled Picopump (World Precision Instruments). […] The needle was left in place for 10 min after each injection and slowly withdrawn to prevent reflux of the injected solutions up the needle tract. The surgical approach to the optic nerve was identical to that described for optic nerve transection. After a longitudinal cut was made in the meningeal sheath surrounding the optic nerve, the nerve was gently lifted out of the sheath. The meningeal sheath including the ophthalmic artery was then clamped using a calibrated micro-vessel clamp for 45 minutes, after which the clamp was removed to permit vascular reperfusion. […]
# Eyes were enucleated, the cornea and lens were removed and the remaining eye cups containing the retinas were fixed in 4% paraformaldehyde at 14 days postaxotomy. […] RGC densities were grouped by retinal eccentricity (inner, middle, outer), and expressed as mean±SEM. […]
substance,measurement,setting,value
"TAT-Kv2.1: TAT domain conjugated to Kv2.1 voltage-gated potassium channel C-terminal peptide HGSTRDQSI (SEQ ID NO:2) (also: TAT conjugated, site not given here; listed as Homo sapiens)",cortical neuron survival,[1],dose-dependent survival-promoting effect
same,increase in RGC survival compared to controls,[2]; intraocular injection 10 mg/ml at 3 and 8 days,3 fold
same,RGC density as share of the normal density of 2500 cells/mm^2,[2]; nerve injection 10 mg/ml,~80%
same,increase in RGC survival compared to controls,[2]; single nerve injection 10 mg/ml at time of axotomy,5 fold
same,RGC survival after ischemic (stroke) injury,[3],significantly enhanced RGC survival
